Assay results reported in PubChem BioAssay (NCI).
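1) Cells in 96-well plates. 2) Compound, 48 h, 5 concentrations. 3) Linear interpolation between surrounding doses. 4) Unreached endpoint = highest concentration. GI50 is the concentration that inhibits growth by half. Definition used: TGI = concentration required for complete inhibition of growth.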

How the values were obtained:
Assay in all cases: NCI-60 cell line screen, 48 h
[1] = system: T-47D breast
[2] = system: NCI-H522 lung
[3] = system: RXF 393 renal
[4] = system: SK-MEL-2 melanoma
[5] = system: MCF7 breast
[6] = system: HCT-15 colon
[7] = system: A549 NSCLC
[8] = system: HCT-116 colon
[9] = system: M14 melanoma
[10] = system: OVCAR-3 ovarian
[11] = system: IGROV1 ovarian
[12] = system: NCI-H226 lung
[13] = system: HS 578T breast
[14] = system: CAKI-1 renal
[15] = system: 786-0 renal
[16] = system: OVCAR-8 ovarian
[17] = system: MDA-MB-231 breast
[18] = system: NCI-H23 lung
[19] = system: ACHN renal
[20] = system: SNB-19 CNS
[21] = system: SF-268 CNS
[22] = system: U251 CNS
[23] = system: SK-MEL-5 melanoma
[24] = system: MDA-MB-435
[25] = system: SF-539 CNS
[26] = system: NCI-H460 lung
[27] = system: BT-549 breast
[28] = system: A498 renal
[29] = system: NCI/ADR-RES ovarian
[30] = system: OVCAR-4 ovarian
[31] = system: LOX IMVI melanoma
[32] = system: SNB-75 CNS
[33] = system: SK-OV-3 ovarian
[34] = system: RPMI-8226 leukemia
[35] = system: HT29 colon
[36] = system: UACC-62 melanoma
[37] = system: TK-10 renal
[38] = system: SW-620 colon
[39] = system: MOLT-4 leukemia
[40] = system: DU-145 prostate
[41] = system: OVCAR-5 ovarian
[42] = system: HL-60(TB) leukemia
[43] = system: HOP-62 NSCLC
[44] = system: EKVX NSCLC
[45] = system: UACC-257 melanoma
[46] = system: SR leukemia
[47] = system: UO-31 renal
[48] = system: PC-3 prostate
[49] = system: SN12C renal
[50] = system: KM12 colon
[51] = system: SK-MEL-28 melanoma
[52] = system: SF-295 CNS
[53] = system: K-562 leukemia
[54] = system: COLO 205 colon
[55] = system: CCRF-CEM leukemia
[56] = system: MALME-3M melanoma
[57] = system: HOP-92 NSCLC
[58] = system: HCC-2998 colon

SMILES: CC(=O)c1c(Nc2cccc(F)c2)[nH]c2c(Cl)cc(Cl)c(Cl)c2c1=O
- GI50 [1]: 288 nM
- GI50 [2]: 289 nM
- TGI [2]: > 100000 nM
- GI50 [3]: 326 nM
- TGI [3]: 1950 nM
- GI50 [4]: 292 nM
- TGI [4]: 1290 nM
- GI50 [5]: 309 nM
- TGI [5]: > 100000 nM
- GI50 [6]: 296 nM
- TGI [6]: 2230 nM
- GI50 [7]: 479 nM
- TGI [7]: > 100000 nM
- GI50 [8]: 302 nM
- TGI [8]: > 44100 nM
- GI50 [9]: 366 nM
- TGI [9]: 7130 nM
- GI50 [10]: 299 nM
- TGI [10]: > 100000 nM
- GI50 [11]: 440 nM
- TGI [11]: > 100000 nM
- GI50 [12]: 343 nM
- TGI [12]: 2930 nM
- GI50 [13]: 278 nM
- TGI [13]: > 100000 nM
- GI50 [14]: 259 nM
- TGI [14]: 1830 nM
- GI50 [15]: 471 nM
- TGI [15]: > 100000 nM
- GI50 [16]: 363 nM
- TGI [16]: > 100000 nM
- GI50 [17]: 259 nM
- TGI [17]: 1940 nM
- GI50 [18]: 262 nM
- TGI [18]: 1940 nM
- GI50 [19]: 411 nM
- TGI [19]: > 28600 nM
- GI50 [20]: 384 nM
- TGI [20]: > 100000 nM
- GI50 [21]: 333 nM
- TGI [21]: > 100000 nM
- GI50 [22]: 270 nM
- TGI [22]: > 100000 nM
- GI50 [23]: 184 nM
- TGI [23]: 433 nM
- GI50 [24]: 425 nM
- TGI [24]: 8550 nM
- GI50 [25]: 369 nM
- GI50 [26]: 360 nM
- TGI [26]: > 100000 nM
- GI50 [27]: 457 nM
- TGI [27]: 8310 nM
- GI50 [28]: 137 nM
- TGI [28]: 611 nM
- GI50 [29]: 297 nM
- TGI [29]: 9890 nM
- GI50 [30]: 361 nM
- TGI [30]: > 100000 nM
- GI50 [31]: 487 nM
- TGI [31]: 12800 nM
- GI50 [32]: 508 nM
- TGI [32]: > 22000 nM
- GI50 [33]: 263 nM
- TGI [33]: 4860 nM
- GI50 [34]: 232 nM
- TGI [34]: 2180 nM
- GI50 [35]: 387 nM
- TGI [35]: > 100000 nM
- GI50 [36]: 253 nM
- TGI [36]: 793 nM
- GI50 [37]: 554 nM
- TGI [37]: > 100000 nM
- GI50 [38]: 366 nM
- TGI [38]: > 100000 nM
- GI50 [39]: 356 nM
- GI50 [40]: 447 nM
- TGI [40]: > 100000 nM
- GI50 [41]: 1220 nM
- TGI [41]: > 100000 nM
- GI50 [42]: 337 nM
- TGI [42]: 1540 nM
- GI50 [43]: 418 nM
- TGI [43]: 11000 nM
- GI50 [44]: 333 nM
- TGI [44]: > 100000 nM
- GI50 [45]: 363 nM
- TGI [45]: 3150 nM
- GI50 [46]: 697 nM
- TGI [46]: > 100000 nM
- GI50 [47]: 216 nM
- TGI [47]: 5940 nM
- GI50 [48]: 257 nM
- TGI [48]: 17600 nM
- GI50 [49]: 289 nM
- GI50 [50]: 346 nM
- GI50 [51]: 377 nM
- TGI [51]: 4830 nM
- GI50 [52]: 336 nM
- TGI [52]: 1810 nM
- GI50 [53]: 307 nM
- TGI [53]: > 100000 nM
- GI50 [54]: 440 nM
- TGI [54]: 2480 nM
- GI50 [55]: 346 nM
- TGI [55]: > 100000 nM
- GI50 [56]: 264 nM
- TGI [56]: 1020 nM
- GI50 [57]: 88.4 nM
- TGI [57]: 477 nM
- GI50 [58]: 333 nM
- TGI [58]: > 100000 nM
